The test system of this assay is human coronavirus OC43. The assay is described as follows: Antiviral activity: human coronavirus OC43 replication in differentiated 3T3-L1 mouse adipocyte cells, viral titers by TCID50 assay in MRC5 cells. Format: cell-based. The note with it: median fold reduction of virus titers vs vehicle control (DMSO); final compound concentration 10 µM; medium collected 24 hours after infection; differentiated 3T3-L1 adipocytes, 0.05 TCID50 per cell. The method, then: Activity of compounds affecting viral replication and disease was tested against coronavirus replication in differentiated 3T3-L1 mouse adipocyte cells using human coronavirus OC43 as a model virus. 3T3-L1 preadipocytes (ATCC) were routinely cultured in a growth medium composed of DMEM high-glucose (Sigma), 10% FBS (Gibco), 10 U/ml penicillin and 10 μg/ml streptomycin (P/S; Gibco) in a standard cell culture incubator at 37° C. To induce adipogenic differentiation, a confluent layer of 3T3-L1 cells were incubated with the growth medium containing 2 μM rosiglitazone, 1 μM dexamethasone, 500 μM IBMX, and 1 μg/ml insulin (Sigma). Forty-eight (48) hours later (on day 2) and on days 4 and 6, medium of the cells was replaced with fresh medium containing 1 μg/ml insulin. On days 8 and 10, the medium was refreshed with regular growth medium and addition of insulin was omitted. On day 11 or 12, the cells were infected with human coronavirus OC43 (ATCC) at a multiplicity of 0.05 TCID50 (tissue-culture infectious-dose 50) per cell in DMEM containing 2% heat-inactivated FBS and P/S. One hour after infection, medium of the cells were replaced with fresh medium containing either the indicated FABP4 modulating compounds or the vehicle in which the compounds were dissolved (DMSO). The final compound concentration was 10 µM and final concentration of DMSO was 0.1% (v/v). The cells were incubated at 35° C. during the course of infection and compound treatment. Twenty-four hours after infection, medium of the cells was collected, cleared by centrifugation at 2,000g for 5 minutes, and frozen at −80 degrees C. until further processing. The viral titers in the samples were determined by TCID50 assay in MRC5 cells (ATCC) using Reed-Munch method, and median fold reduction of virus titers in compound treated cells compared to vehicle control was calculated.
In the case of `CCCCC1CCCc2c(n(Cc3cccc(C#N)c3)c3c(C(=O)O)cccc23)C1` (centres unmarked) [Compound 2, 7-butyl-5-[(3-cyanophenyl)methyl]-5H,6H,7H, 8H,9H,10H-cyclohepta[b]indole-4-carboxylic acid], the Antiviral activity group entry was “A (reduced virus titers >100-fold)”.

Consider `Cc1c(Cl)cccc1OCc1cc(=O)n2nc(-c3ccccc3)nc2[nH]1` [Compound 23, 5-((3-chloro-2-methylphenoxy)methyl)-2-phenyl-[1,2,4]triazolo[1,5-a]pyrimidin-7(4H)-one, reference compound], for which the Antiviral activity group entry is on record as “B (between 10- to 99-fold)”.

For `CCCCC1CCCc2c(n(Cc3ccc(C)cc3)c3c(C(=O)O)cccc23)C1` (centres unmarked) [Compound 3, 7-butyl-5-[(4-methylphenyl)methyl]-5H,6H,7H,8H,9H,10H-cyclohepta[b]indole-4-carboxylic acid], the Antiviral activity group entry is “B (between 10- to 99-fold)”.

As to `CCCCCCC1CCc2c(n(Cc3cccc(C#N)c3)c3c(C(=O)O)cccc23)C1` (centres unmarked) [Compound 8, 9-[(3-cyanophenyl)methyl]-2-hexyl-2,3,4,9-tetrahydro-1H-carbazole-8-carboxylic acid], the Antiviral activity group result is given as “B (between 10- to 99-fold)”.

For the molecule `CCCCC1CCCCc2c1n(Cc1cccc(C(N)=O)c1)c1c(C(=O)O)cccc21` (centres unmarked) [Compound 14, 6-butyl-5-[(3-carbamoylphenyl)methyl]-5H,6H,7H,8H,9H,10H-cyclohepta[b]indole-4-carboxylic acid], the Antiviral activity group result was “B (between 10- to 99-fold)”.

Take `CCCCC1CCc2c(c3cccc(C(=O)O)c3n2Cc2cccc(C(N)=O)c2)C1` (centres unmarked) [Compound 20, 3-butyl-9-[(3-carbamoylphenyl)methyl]-2,3,4,9-tetrahydro-1H-carbazole-8-carboxylic acid]: the Antiviral activity group result is on record as “C (between 2- to 9-fold)”.

For the molecule `CCCCCCC1CCCc2c(n(Cc3cccc(C(N)=O)c3)c3c(C(=O)O)cccc23)C1` (centres unmarked) [Compound 5, 5-[(3-carbamoylphenyl)methyl]-7-hexyl-5H,6H,7H,8H,9H,10H-cyclohepta[b]indole-4-carboxylic acid], the Antiviral activity group result is on record as “B (between 10- to 99-fold)”.

`CCCCC1CCCc2c1n(Cc1cccc(C(N)=O)c1)c1c(C(=O)O)cccc21` (centres unmarked) [Compound 12, 1-butyl-9-[(3-carbamoylphenyl)methyl]-2,3,4,9-tetrahydro-1H-carbazole-8-carboxylic acid]: the Antiviral activity group entry was “C (between 2- to 9-fold)”.

For the molecule `CCCCC1CCc2c1n(Cc1cccc(C(N)=O)c1)c1c(C(=O)O)cccc21` (centres unmarked) [Compound 16, 3-butyl-4-[(3-carbamoylphenyl)methyl]-1H,2H,3H,4H-cyclopenta[b]indole-5-carboxylic acid], the Antiviral activity group entry is listed as “C (between 2- to 9-fold)”.

On to `CCCCC1CCCCc2c1c1cccc(C(=O)O)c1n2Cc1cccc(C(N)=O)c1` (centres unmarked) [Compound 19, 10-butyl-5-[(3-carbamoylphenyl)methyl]-5H,6H,7H,8H,9H,10H-cyclohepta[b]indole-4-carboxylic acid], for which the Antiviral activity group entry is “C (between 2- to 9-fold)”.

`CCCCCCC1CCc2c(n(Cc3cccc(C(N)=O)c3)c3c(C(=O)O)cccc23)C1` (centres unmarked) [Compound 7, 9-[(3-carbamoylphenyl)methyl]-2-hexyl-2,3,4,9-tetrahydro-1H-carbazole-8-carboxylic acid]: the Antiviral activity group result is recorded as “B (between 10- to 99-fold)”.

With `CCCCC1CCCc2c(n(Cc3cccc(C(N)=O)c3)c3c(C(=O)O)cccc23)C1` (centres unmarked) [Compound 1, 7-butyl-5-[(3-carbamoylphenyl)methyl]-5H,6H,7H,8H,9H,10H-cyclohepta[b]indole-4-carboxylic acid], the Antiviral activity group result is listed as “B (between 10- to 99-fold)”.

For the molecule `CCCCCCC1CCc2c(n(Cc3cccnc3)c3c(C(=O)O)cccc23)C1` (centres unmarked) [Compound 9, 2-hexyl-9-[(pyridin-3-yl)methyl]-2,3,4,9-tetrahydro-1H-carbazole-8-carboxylic acid], the Antiviral activity group result was “A (reduced virus titers >100-fold)”.

Regarding `CCCCCCC1CCc2c(n(Cc3ccccc3C)c3c(C(=O)O)cccc23)C1` (centres unmarked) [Compound 10, 2-hexyl-9-[(2-methylphenyl)methyl]-2,3,4,9-tetrahydro-1H-carbazole-8-carboxylic acid], the Antiviral activity group entry was “A (reduced virus titers >100-fold)”.

Consider `CCCCCCC1CCCc2c(n(Cc3cccc(C#N)c3)c3c(C(=O)O)cccc23)C1` (centres unmarked) [Compound 6, 5-[(3-cyanophenyl)methyl]-7-hexyl-5H,6H,7H,8H,9H,10H-cyclohepta[b]indole-4-carboxylic acid], for which the Antiviral activity group result is given as “A (reduced virus titers >100-fold)”.

As to `CCCCCCC1CCc2c(n(Cc3ccccc3F)c3c(C(=O)O)cccc23)C1` (centres unmarked) [Compound 11, 9-[(2-fluorophenyl)methyl]-2-hexyl-2,3,4,9-tetrahydro-1H-carbazole-8-carboxylic acid], the Antiviral activity group result is reported as “A (reduced virus titers >100-fold)”.

For `Clc1ccc2nc(N3CCCCC3)c(-c3nnn[nH]3)c(-c3ccccc3)c2c1` [Compound 22, 6-chloro-4-phenyl-2-(piperidin-1-yl)-3-(1H-tetrazol-5-yl)quinoline, reference compound], the Antiviral activity group result is reported as “A (reduced virus titers >100-fold)”.

As for `CCc1c(-c2ccccc2)c(-c2ccccc2)nn1-c1ccccc1-c1cccc(OCC(=O)O)c1` [Compound 21, 2-((2′-(5-Ethyl-3,4-diphenyl-1H-pyrazol-1-yl)-[1,1′-biphenyl]-3-yl)oxy)acetic acid, reference compound], the Antiviral activity group result is recorded as “C (between 2- to 9-fold)”.

Regarding `CCCCC1CCCc2c(n(Cc3ccccc3C)c3c(C(=O)O)cccc23)C1` (centres unmarked) [Compound 4, 7-butyl-5-[(2-methylphenyl)methyl]-5H,6H,7H,8H,9H,10H-cyclohepta[b]indole-4-carboxylic acid], the Antiviral activity group result was “A (reduced virus titers >100-fold)”.

As for `CCCCC1Cc2c(n(Cc3cccc(C#N)c3)c3c(C(=O)O)cccc23)C1` (centres unmarked) [Compound 18, 2-butyl-4-[(3-cyanophenyl)methyl]-1H,2H,3H,4H-cyclopenta[b]indole-5-carboxylic acid], the Antiviral activity group entry is reported as “C (between 2- to 9-fold)”.

As to `CCCCC1CCCCc2c1n(Cc1cccc(C#N)c1)c1c(C(=O)O)cccc21` (centres unmarked) [Compound 15, 6-butyl-5-[(3-cyanophenyl)methyl]-5H,6H,7H,8H,9H,10H-cyclohepta[b]indole-4-carboxylic acid], the Antiviral activity group entry was “B (between 10- to 99-fold)”.

Turning to `CCCCC1Cc2c(n(Cc3cccc(C(N)=O)c3)c3c(C(=O)O)cccc23)C1` (centres unmarked) [Compound 17, 2-butyl-4-[(3-carbamoylphenyl)methyl]-1H,2H,3H,4H-cyclopenta[b]indole-5-carboxylic acid], the Antiviral activity group result is “C (between 2- to 9-fold)”.

On to `CCCCC1CCCc2c1n(Cc1cccc(C#N)c1)c1c(C(=O)O)cccc21` (centres unmarked) [Compound 13, 1-butyl-9-[(3-cyanophenyl)methyl]-2,3,4,9-tetrahydro-1H-carbazole-8-carboxylic acid], for which the Antiviral activity group entry is reported as “B (between 10- to 99-fold)”.

Values taken from patent US12138243B2, “Antiviral use of FABP4 modulating compounds” (CRESCENTA BIOSCIENCES, priority 2021, dated 2024).
